In one data set the test system is HX-62. The data set is described as follows: In vitro cytotoxicity (SRB assay), human ovarian carcinoma line HX-62. Format: cell-based. The conditions noted are these: HX-62 cells, exposure 48 to 96 hours. The procedure:
(§1) Monolayer cells were trypsinized and seeded in 96-well microtiter plates at a density of 1×10^4 cells/well in 200 μl of growth medium. Cells were incubated overnight and test compounds were added to triplicate wells at various concentrations for a total of 48 to 96 hours. For toxicity analysis after drug exposure, the cells were fixed with trichloroacetic acid and stained for cellular protein content by incubation for 30 minutes with 0.4% (wt/vol) sulphorhodamine B (SRB) dissolved in 1% acetic acid. The unbound dye was removed by 1% acetic acid washes, and the bound dye was extracted with 10 mM Tris buffer. The amount of dye in solution was quantified by absorbance at 564 nm.
(Sulforhodamine B stains cellular protein and so reports cell mass.)

Another data set concerns SKOV-3. The data set is described as follows: In vitro cytotoxicity (SRB assay), human ovarian carcinoma line SKOV-3. The data set is classed as cell-based. The conditions noted are these: SKOV-3 cells, exposure 48 to 96 hours. The procedure:
as §1

The next data set relates to 41M. The data set is described as follows: In vitro cytotoxicity (SRB assay), human ovarian carcinoma line 41M. Format: cell-based. The conditions noted are these: 41M cells, exposure 48 to 96 hours. The procedure: as §1
For another data set, the system named is 41M^R. The data set is described as follows: In vitro cytotoxicity (SRB assay), human ovarian carcinoma line 41M^R. The conditions noted are these: 41M^R cells, exposure 48 to 96 hours. The data set is classed as cell-based. The procedure: as §1
The next data set relates to CH1. Description: In vitro cytotoxicity (SRB assay), human ovarian carcinoma line CH1. Format: cell-based. Particulars: CH1 cells, exposure 48 to 96 hours. The procedure:
as §1

The subject of the next data set is CH^R. The data set is described as follows: In vitro cytotoxicity (SRB assay), human ovarian carcinoma line CH^R. The conditions noted are these: CH^R cells, exposure 48 to 96 hours. The data set is classed as cell-based. The procedure: as §1
The next data set deals with A2780. Description: In vitro cytotoxicity (SRB assay), human ovarian carcinoma line A2780. Format: cell-based. The conditions noted are these: A2780 cells, exposure 48 to 96 hours. The procedure:
as §1

A further data set has as its system A2780^R. The data set is described as follows: In vitro cytotoxicity (SRB assay), human ovarian carcinoma line A2780^R. Format: cell-based. The conditions noted are these: A2780^R cells, exposure 48 to 96 hours. The procedure: as §1
In a further data set the test system is Adj/PC6 tumours. Description: In vivo test in mice having Adj/PC6 tumours (LD50, ED90, TI). Particulars: for ED90 / LD50 / TI (ratio of LD50 to ED90): mice, Adj/PC6 tumours. The procedure: The compounds of the invention were then tested in vivo in mice having Adj/PC6 tumours. The Adj/PC6 testing was carried out as described by P M Goddard et al presented in Sixth NCI-EORTC Symposium on New Drugs in Cancer Therapy 1989, which is a development of the basic method described by T A Connors et al, Chem Biol Interact 5,415 (1972). The animals were sacrificed when moribund. The compounds were administered parenterally (ip) or orally (po), or in the case of the Example 2 compound, iv at doses of 2.5, 5, 10 and 20 mg/kg (4 animals per dose group).
In the testing, LD50 and ED90 values in mg/kg body weight were determined in the conventional manner. The therapeutic index (TI) was calculated as the ratio of LD50 to ED90, and the results are shown below.

Setting [1] is: i.v., doses 2.5, 5, 10 and 20 mg/kg.

We go through six compounds from patent US5519155A, “Platinum complexes” (Johnson Matthey Public Limited Company, priority 1994, dated 1996).

A value given as a limit tells only on which side of the number the result lay.

In general, IC50 refers to the concentration that inhibits the measured activity by half. Read a low IC50 as higher potency. Usually LD50 stands for the dose at which mortality reaches 50%. The low end stands for greater toxicity, the high end for lower toxicity.

For `CC(C)N.CC(C)N.CCCCCC(=O)[O][Pt]([OH])([Cl])[O]C(=O)CCCCC` [Example 3, c,t,c-[PtCl(OH)(O2 CC5 H11)2 (i-C3 H7 NH2)2]], the IC50 in the data set on HX-62 was 50 nM; with SKOV-3, 4.6 nM; with 41M it was under 2.5 nM; in the data set with 41M^R, under 2.5 nM; with CH1, under 2.5 nM; with CH^R, under 2.5 nM. The IC50 in the data set with A2780 is under 2.5 nM; with A2780^R, 2.9 nM.
Take `CCCC(=O)[O][Pt]([Cl])([O]C)[O]C(=O)CCC.N.NC1CCCCC1` [Example 1, c,t,c-[PtCl(OMe)(O2 CC3 H7)2 NH3 (c-C6 H11 NH2)]]: the IC50 in the data set on HX-62 was found to be 220 nM; in the data set on SKOV-3 it was 30 nM; with 41M, 10 nM; in the data set on 41M^R it was 13 nM; in the data set on CH1 it was 2 nM. This compound yielded an ED90 with Adj/PC6 tumours (i.p.) of 2.6 mg/kg. This compound also showed an LD50 in the data set with Adj/PC6 tumours (i.p.) of 17.5 mg/kg. The “TI (ratio of LD50 to ED90)” value with Adj/PC6 tumours (i.p.) worked out at 6.7.
`CC(=O)[O][Pt]([OH])([Cl])[O]C(C)=O.CC(C)N.CC(C)N` [Example 4, c,t,c-[PtCl(OH)(OAc)2 (i-C3 H7 NH2)2]]: the IC50 in the data set on HX-62 was found to be 2100 nM; with SKOV-3, 1600 nM; in the data set on 41M, 890 nM; in the data set with 41M^R, 590 nM; in the data set with CH1, 86 nM; in the data set with CH^R, 210 nM. For the same compound, the IC50 in the data set on A2780 was found to be 650 nM; with A2780^R, 1900 nM.
For the compound `CC(C)N.CC(C)N.C[O][Pt]([OH])([O]C(C)=O)[O]C(C)=O` [Example 7, c,t,c-[Pt(OH)(OMe)(OAc)2 (i--C3 H7 NH2)2]], the IC50 in the data set on HX-62 is 12500 nM; with SKOV-3, 6100 nM; with 41M it was 3100 nM; with 41M^R, 2500 nM; in the data set on CH1 it was 260 nM.
For `CC(=O)[O][Pt]([OH])([OH])[O]C(C)=O.N.NC1CCCCC1` [Example 2, c,t,c-[Pt(OH)2 (OAc)2 NH3 (c-C6 H11 NH2)]], the IC50 in the data set with HX-62 came to 37000 nM; in the data set on SKOV-3, 21000 nM; in the data set with 41M, 6500 nM; in the data set with 41M^R, 4300 nM; in the data set with CH1, 740 nM; with CH^R, 1350 nM. Also, the values for the IC50 in the data set on A2780 and in the data set on A2780^R were 4200 nM and 3700 nM, respectively. Further, the results for the ED90 in the data set on Adj/PC6 tumours (i.p.), in the data set with Adj/PC6 tumours (setting [1]) and in the data set with Adj/PC6 tumours (p.o.) were 4.2 mg/kg, under 2.5 mg/kg and 42 mg/kg, respectively. In addition, the LD50 is 17.5 mg/kg in the data set on Adj/PC6 tumours (i.p.), 14 mg/kg in the data set on Adj/PC6 tumours (setting [1]) and 670 mg/kg in the data set on Adj/PC6 tumours (p.o.). Also, the “TI (ratio of LD50 to ED90)” value in the data set with Adj/PC6 tumours (i.p.) is reported as 4.2; in the data set on Adj/PC6 tumours (setting [1]), over 5.6; in the data set with Adj/PC6 tumours (p.o.), 16. Also, the “therapeutic index, oral route compared to parenteral administration” value in the data set with Adj/PC6 tumours (oral vs parenteral, in words) was “greater therapeutic index”.
Regarding `CC(=O)[O][Pt]([OH])([Cl])[O]C(C)=O.N.NC1CCCCC1` [Example 6, c,t,c-[PtCl(OH)(OAc)2 NH3 (c-C6 H11 NH2)]], the IC50 in the data set on HX-62 came out at 3100 nM; in the data set on SKOV-3, 1150 nM; with 41M it was 240 nM; in the data set on 41M^R, 440 nM; in the data set on CH1, 22 nM; in the data set on CH^R, 82 nM. Besides, the values for the IC50 with A2780 and in the data set with A2780^R were 310 nM and 930 nM, respectively.
